{"source": "patent US20040131701A1", "about": "“Method to treat infectious diseases and/or to enhance antimicrobial efficacy of drugs” (Virocell Inc., priority 2000, published 2004)", "key": {"[1]": {"system": "T-tropic recombinant luciferase-encoding HIV-1 particles", "assay": "Infection of PM1 cells with luciferase reporter virus, T-tropic envelope", "format": "cell-based", "settings": "5 min pretreatment, 72 h", "source_text": "Fully infectious viral entities were generated by calcium phosphate transfection of 293T with pNL4-3 vector (T-tropic virions) as described below. Recombinant luciferase-encoding virus particles pseudotyped with the appropriate Env proteins have been used in our series of investigations. Such a system provides a highly sensitive and reproducible assay to monitor single-cycle viral infection events. This test is based on the molecular construct pNL4-3-Luc-E-R+, a vector that carries the gene for firefly luciferase inserted into the nef gene of the pNL4-3 provirus and contains also a frameshift at the 5′ end of env (nt 5950) that prevents expression of the envelope glycoproteins. Progeny viruses were generated by cotransfecting 293T cells with pNL4-3-Luc-E-R+ and a plasmid DNA encoding for the appropriate envelope glycoproteins (T or macrophage-tropic). Briefly, a typical transfection experiment was performed as follow. […]\nIn brief, 100 μl of cell-free supernatant were discarded from each well and 25 μl of cell culture lysis buffer 5×(125 mM Tris phosphate [pH 7.8], 10 mM DTT, 5% Triton X-100, and 50% glycerol) were added to the wells before incubation at room temperature for 30 min. […] Luciferase activity was monitored using a microplate luminometer (MLX; Dynex Technologies, Chantilly, Va.). […]"}, "[2]": {"system": "Human peripheral blood mononuclear cells", "assay": "HPLC analysis of phosphorylated forms of 3TC in PBMC's", "format": "cell-based", "settings": "10 μM bpV[pic], 3TC at 5, 10 and 20 μM", "method": "Analysis of the cellular content in 3TC and its phosphorylated metabolites was performed by HPLC as follows. In preparations for HPLC analysis, 1 ml of a mixture of acetonitrile/water (5/95, vol/vol) and 0.5 ml water were added to each sample. The samples were vortexed and centrifuged at 1000×g for 10 min at room temperature to remove the precipitated material. The supernatants were collected and used without further treatment for HPLC analysis. Two (2) ml of each sample (total volume of ˜2.5 ml) were injected onto a Beckman Ultrasphere ODS column (4.6 mm×150 mm) protected with a Guard-Pak C18 (Waters Millipore) pre-column. 3TC and its metabolites were eluted using a linear gradient from 100% solvent A to 100% solvent B in 25 minutes at a flow rate of 1.2 ml/minute (Solvent A: 5% acetonitrile, 70% water, 25% buffer [40 mM H3PO4, 8 mM tetrabutylammonium hydroxide, adjusted to pH 6.75 with concentrated ammonium hydroxide]; Solvent B: 40% acetonitrile, 35% water, 25% buffer). The elution of metabolites was monitored by counting radioactivity using a Flow Scintillation Analyser 500TR Series (Packard); the HPLC column effluent (1.2 ml/min) was mixed with a liquid scintillation cocktail (3 ml/min) (Ultima Flow M, Packard).\nHuman peripheral blood mononuclear cells (PBMC's) were obtained from healthy donors subjected to lymphopheresis for 60 min. The yield of PBMC's ranged from 1.8 to 2.6 billion cells per donor. Twenty-five (25) ml fractions of the cell suspensions (obtained by lymphopheresis) were layered on cushions (15 ml) of Lymphocyte Separation Medium (Wisent) in 50 ml tubes, which were then centrifuged at room temperature at 750×g during 25 min. The purified PBMC's were collected (on top of the Ficoll cushions) and washed 3 times in HBSS (without calcium and magnesium) (500×g, 7 min. at room temperature). The cells were resuspended in RPMI containing 5% FBS at the cell concentration of 25×10^6 per ml. Incubations were carried out using 1 ml of PBMC's suspension per tube. […]"}}, "data": [{"substance": "K2[VO(O2)2pic].H2O [bpV[pic]]", "values": [{"measurement": "infection (luciferase activity)", "setting": "[1]", "value": "dose-dependent inhibition of infection"}, {"measurement": "formation of 3TC diphosphate", "setting": "[2]", "value": "decreased"}, {"measurement": "formation of 3TC triphosphate", "setting": "[2]", "value": "increased"}, {"measurement": "ratio of 3TC triphosphate over 3TC diphosphate", "setting": "[2]", "value": "consistently increases"}]}]}
